Data published in article PMC10615754 (Molecular Psychiatry, 2023).

Key:
[1] = biological target: T1, DAT (Mus musculus, UniProt Q61327); experiment: Competition binding of [3H]WIN35,428 to DAT in mouse striatal homogenates
T1 construct: from tissue; host or cells: striatum of male SERT+/- mice
Protocol: (§1) Thus, in the current experiments, male constitutive SERT+/- mice weighing 25-30g were used, 3 per assay. […] Mice were euthanized by cervical dislocation without use of anesthesia to prevent anesthetic-induced attenuation of transporter binding sites. Whole hippocampi or striatum were harvested and placed in 30 ml of ice-cold buffer specific to each assay.
(§2) Tissue Collection and Preparation: Mice were humanely euthanized by cervical dislocation and decapitated without anesthesia to collect fresh brain tissues without compromising transporter binding properties. Striatum from each mouse were placed in a round 50 ml polycarbonate tube (Nalge Nunc, Rochester, NY, USA) containing 30 mM sodium phosphate and 0.32 M sucrose for DAT binding as in Reith and Coffey^16. […] All tissues were homogenized at 26,000 RPM for 1 min with a Polytron tissue homogenizer (Brinkman Instruments, Westbury, NY, USA). […] The supernate was discarded, and the pellet re-suspended in 25 ml buffer on ice using a Potter Elvehjem 10 ml glass and teflon homogenizer. The homogenate was re-centrifuged for 10 min at 36,000 x g.
The final pellet was re-suspended in 30 mM sodium phosphate and 0.32 M sucrose pH 7.4 at 4°C, and binding assays were carried out in duplicate for 2 hours at 4°C.
Labeled homogenates were captured through filtration under vacuum onto glass fiber filters pre-soaked in 0.5% polyethyleneimine (Sigma) on a Brandel tissue harvester (Gaithersburg, MD). Filters were washed twice more with 4 ml of buffer.
(§3) Data Analysis: Binding data were analyzed using non-linear regression curve fitting with GraphPad Prism (La Jolla, CA, USA).

[2] = biological target: T2, hOCT3 (Homo sapiens, UniProt O75751); experiment: Inhibition of [3H]MPP+ uptake into HEK293 cells stably expressing hOCT3; type: cell-based
T2 construct: expressed in transfected cells
T2 sequence (O75751 1-556): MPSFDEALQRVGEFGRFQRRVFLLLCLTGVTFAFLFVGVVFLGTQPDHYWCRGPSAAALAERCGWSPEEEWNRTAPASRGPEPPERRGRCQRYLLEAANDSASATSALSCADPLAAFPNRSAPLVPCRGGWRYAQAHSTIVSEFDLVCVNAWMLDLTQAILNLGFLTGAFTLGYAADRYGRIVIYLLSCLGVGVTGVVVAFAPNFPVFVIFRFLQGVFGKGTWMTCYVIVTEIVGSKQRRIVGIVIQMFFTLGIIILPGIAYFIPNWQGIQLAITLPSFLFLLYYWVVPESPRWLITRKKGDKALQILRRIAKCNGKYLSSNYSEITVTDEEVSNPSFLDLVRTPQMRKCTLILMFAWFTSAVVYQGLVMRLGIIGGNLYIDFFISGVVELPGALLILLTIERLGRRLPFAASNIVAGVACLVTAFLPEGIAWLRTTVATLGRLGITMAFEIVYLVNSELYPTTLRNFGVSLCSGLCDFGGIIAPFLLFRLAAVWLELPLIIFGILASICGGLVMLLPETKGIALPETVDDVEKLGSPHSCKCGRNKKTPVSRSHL
Protocol: Mechanically detached HEK293 cells grown to confluence in 4-5 ml flasks were suspended in 3-4 ml of media in a 15 ml polypropylene conical tube.
Cells were harvested on a Brandel 48 well harvester by vacuum filtration onto glass fiber filter strips (Brandel, Gaithersburg, MD, USA) pre-soaked in a 1% polyethalineamine saline solution. […] Protein concentration of the cell suspension was determined after solubilization in 1N NaOH against known concentrations of bovine serum albumen with Bradford reagent as for mouse brain homogenates.
Data Analysis: Experiments were performed in triplicate. Percent of total binding was calculated, and uptake kinetics determined with GraphPad Prism.

[3] = biological target: T3, NET (Mus musculus, UniProt O55192); parameters: from tissue; host or cells: hippocampus of male SERT+/- mice; method as in earlier work; conditions: known Kd from prior studies, used to calculate Ki; ref 20 (SI); read-out: Kd of hot ligand at NET; cited from earlier work
T3 sequence (O55192 whole entry): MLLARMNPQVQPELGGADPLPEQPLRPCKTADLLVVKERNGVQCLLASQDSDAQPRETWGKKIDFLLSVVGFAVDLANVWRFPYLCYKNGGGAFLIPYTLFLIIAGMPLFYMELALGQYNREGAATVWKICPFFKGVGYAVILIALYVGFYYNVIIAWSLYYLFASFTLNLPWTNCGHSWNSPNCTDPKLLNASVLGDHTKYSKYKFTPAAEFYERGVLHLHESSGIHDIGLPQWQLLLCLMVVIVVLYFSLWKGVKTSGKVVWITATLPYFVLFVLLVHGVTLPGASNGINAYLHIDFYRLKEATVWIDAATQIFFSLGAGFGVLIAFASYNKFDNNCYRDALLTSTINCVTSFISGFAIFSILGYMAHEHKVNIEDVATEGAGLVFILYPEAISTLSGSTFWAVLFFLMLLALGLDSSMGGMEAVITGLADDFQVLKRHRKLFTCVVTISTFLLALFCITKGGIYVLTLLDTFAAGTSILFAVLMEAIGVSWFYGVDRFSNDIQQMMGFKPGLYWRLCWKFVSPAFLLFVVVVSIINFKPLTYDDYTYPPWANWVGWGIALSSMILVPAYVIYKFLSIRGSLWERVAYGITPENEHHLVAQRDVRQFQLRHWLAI

[4] = tested on: OCT3+/+ and OCT3-/- mice; experiment: Sensitization of locomotor activity during CPP conditioning sessions; type: in vivo; conditions: for Locomotor sensitization, first vs. 4th session Mean Difference: sexes pooled, ethanol 1 g/kg and/or cocaine […]
[5] = biological target: hSERT (Homo sapiens, UniProt P31645); conditions: 10 µM cocaine, 10 µM APP+
Sequence of hSERT (P31645 whole entry): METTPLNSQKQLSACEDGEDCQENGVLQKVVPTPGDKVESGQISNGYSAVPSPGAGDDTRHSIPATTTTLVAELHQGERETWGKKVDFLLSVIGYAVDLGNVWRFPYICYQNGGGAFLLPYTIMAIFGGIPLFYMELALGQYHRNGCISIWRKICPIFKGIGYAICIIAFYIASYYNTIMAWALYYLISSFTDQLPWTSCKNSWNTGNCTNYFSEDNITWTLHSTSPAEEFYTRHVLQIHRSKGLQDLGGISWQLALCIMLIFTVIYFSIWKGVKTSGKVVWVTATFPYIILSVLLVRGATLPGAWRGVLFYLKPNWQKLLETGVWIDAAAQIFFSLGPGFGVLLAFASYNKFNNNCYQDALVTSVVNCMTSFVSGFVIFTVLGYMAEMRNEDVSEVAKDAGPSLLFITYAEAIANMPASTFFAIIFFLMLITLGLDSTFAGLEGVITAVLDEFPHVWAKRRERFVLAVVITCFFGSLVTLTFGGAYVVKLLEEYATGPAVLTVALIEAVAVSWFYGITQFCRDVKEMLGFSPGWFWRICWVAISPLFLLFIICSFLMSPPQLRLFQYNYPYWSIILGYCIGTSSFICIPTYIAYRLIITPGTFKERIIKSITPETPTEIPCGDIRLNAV

[6] = tested on: DA clearance in dorsal striatum; experiment: In vivo high-speed chronoamperometry of DA clearance in dorsal striatum; conditions: for EC50, half maximally effective amount to inhibit DA clearance (T80) / Emax, maximal inhibition of DA clearance (percent increase in T80): 2 min post-intrastriatal application; for Emax, maximal inhibition of DA clearance (percent increase in T80): 4-parameter logistic fit; for percent change in T20-60 value from baseline / percent change in peak amplitude of DA signal from baseline: dorsal striatum, 2 minutes following administration, mean and SEM; for Effect on DA clearance time (T80): intrastriatal application, ethanol ~0.5-10 mM, cocaine 1-10 µM at recording site, 2 min after drug
[7] = biological target: hDAT (Homo sapiens, UniProt Q01959); conditions: 10 µM APP+
Sequence of hDAT (Q01959 whole entry): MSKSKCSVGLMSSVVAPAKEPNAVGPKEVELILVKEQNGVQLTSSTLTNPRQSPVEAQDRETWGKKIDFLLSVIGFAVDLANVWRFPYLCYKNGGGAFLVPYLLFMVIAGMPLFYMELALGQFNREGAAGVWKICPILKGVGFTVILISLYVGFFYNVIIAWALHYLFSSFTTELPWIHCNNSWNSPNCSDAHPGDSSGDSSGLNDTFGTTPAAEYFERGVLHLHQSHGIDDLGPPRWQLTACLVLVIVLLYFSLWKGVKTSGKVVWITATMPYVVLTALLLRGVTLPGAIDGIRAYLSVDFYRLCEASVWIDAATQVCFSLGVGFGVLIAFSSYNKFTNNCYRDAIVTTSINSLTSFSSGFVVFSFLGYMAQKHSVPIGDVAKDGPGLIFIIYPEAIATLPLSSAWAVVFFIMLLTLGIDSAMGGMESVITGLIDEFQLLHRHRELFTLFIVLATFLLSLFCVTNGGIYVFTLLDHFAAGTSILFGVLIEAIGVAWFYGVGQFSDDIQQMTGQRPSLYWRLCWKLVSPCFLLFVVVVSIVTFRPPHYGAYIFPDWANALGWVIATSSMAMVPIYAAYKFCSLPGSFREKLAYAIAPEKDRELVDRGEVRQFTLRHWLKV

[8] = biological target: T2, hOCT3; parameters: method as in PMID 29773909; conditions: previously shown; cited from earlier work
[9] = tested on: OCT3; parameters: method as in PMID 29773909, PMID 16581093; conditions: at concentrations lower than 100 µM; cited from earlier work
[10] = biological target: T2, hOCT3; experiment: Real-time uptake of fluorescent substrate ASP+ in YFP-hOCT3 HEK293 cells; type: cell-based; conditions: 3 µM ASP+
[11] = tested on: OCT3+/+ and OCT3-/- mice; experiment: Conditioned place preference (CPP); type: in vivo; conditions: ethanol 1 g/kg + cocaine […] i.p.
Protocol: In the same procedure, sensitization of cocaine-induced locomotion (in the presence and absence of ethanol) was measured. Loss of righting reflex (LORR) was assessed as described previously [36].
For CPP and sensitization to the locomotor stimulant effects of these drugs, mice were injected i.p. with physiological saline, saline + EtOH (100 mg/kg), saline + cocaine (3.2 mg/kg), or EtOH (100 mg/kg) + cocaine (3.2 mg/kg) immediately prior to assay. […] For LORR behavioral assays, mice were injected i.p. with a sedative dose of EtOH, at 3.2 g/kg (base weight per kilogram body weight).
CPP. Conditioned place preference (CPP) in rodents, which is often used to model abuse-related drug effects, is shown by a preference for an environment previously paired with a drug compared with an environment previously paired with vehicle^31, 32. Mice were exposed to an unbiased, one-compartment place-conditioning procedure, with sessions conducted once per day (see^12, 13). […]
This analysis was followed with separate two-way ANOVAs to further probe sex*genotype and treatment*genotype interactions. […] There were no interaction or main effects of sex on sensitization, so male and female data were pooled for further analysis, in which effects of genotype and days were assessed separately for each drug treatment using two-way repeated measures ANOVA’s. […]

[12] = biological target: T3, NET; conditions: ethanol 3.4 nM up to 1 M, hippocampal homogenates
Protocol: as §1
Tissue Collection and Preparation: Mice were humanely euthanized by cervical dislocation and decapitated without anesthesia to collect fresh brain tissues without compromising transporter binding properties. Striatum from each mouse were placed in a round 50 ml polycarbonate tube (Nalge Nunc, Rochester, NY, USA) containing 30 mM sodium phosphate and 0.32 M sucrose for DAT binding as in Reith and Coffey^16. […] All tissues were homogenized at 26,000 RPM for 1 min with a Polytron tissue homogenizer (Brinkman Instruments, Westbury, NY, USA). […] The supernate was discarded, and the pellet re-suspended in 25 ml buffer on ice using a Potter Elvehjem 10 ml glass and teflon homogenizer. The homogenate was re-centrifuged for 10 min at 36,000 x g. […]
as §3

[13] = biological target: SERT (Mus musculus, UniProt Q60857); conditions: ethanol 3.4 nM up to 1 M, hippocampal homogenates
Sequence of SERT (Q60857 whole entry): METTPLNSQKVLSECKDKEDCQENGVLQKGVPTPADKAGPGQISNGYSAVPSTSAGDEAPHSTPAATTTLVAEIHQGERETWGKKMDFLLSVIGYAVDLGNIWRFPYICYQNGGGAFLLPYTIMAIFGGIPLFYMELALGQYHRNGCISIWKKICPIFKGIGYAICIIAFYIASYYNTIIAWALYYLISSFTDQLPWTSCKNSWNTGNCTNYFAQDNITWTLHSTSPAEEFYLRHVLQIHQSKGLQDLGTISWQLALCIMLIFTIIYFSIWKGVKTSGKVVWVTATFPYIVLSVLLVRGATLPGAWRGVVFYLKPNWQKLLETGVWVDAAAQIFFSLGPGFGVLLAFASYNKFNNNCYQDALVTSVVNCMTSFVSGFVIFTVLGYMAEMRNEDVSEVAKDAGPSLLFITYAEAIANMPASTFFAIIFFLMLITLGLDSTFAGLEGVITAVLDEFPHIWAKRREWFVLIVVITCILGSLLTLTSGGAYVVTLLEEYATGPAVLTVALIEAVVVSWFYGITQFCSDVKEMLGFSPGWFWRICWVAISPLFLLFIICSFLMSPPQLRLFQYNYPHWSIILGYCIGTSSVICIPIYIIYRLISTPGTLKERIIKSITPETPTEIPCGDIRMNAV
Protocol: as §1, §2
Radioligand binding to SERT was performed on hippocampal homogenates according to the procedure of D’Amato et al.^19. […]
as §3

[14] = rats, systemic administration of 1 mg/kg of ethanol (i.p.); cited from earlier work
[15] = biological target: hNET (Homo sapiens, UniProt P23975)
Sequence of hNET (P23975 whole entry): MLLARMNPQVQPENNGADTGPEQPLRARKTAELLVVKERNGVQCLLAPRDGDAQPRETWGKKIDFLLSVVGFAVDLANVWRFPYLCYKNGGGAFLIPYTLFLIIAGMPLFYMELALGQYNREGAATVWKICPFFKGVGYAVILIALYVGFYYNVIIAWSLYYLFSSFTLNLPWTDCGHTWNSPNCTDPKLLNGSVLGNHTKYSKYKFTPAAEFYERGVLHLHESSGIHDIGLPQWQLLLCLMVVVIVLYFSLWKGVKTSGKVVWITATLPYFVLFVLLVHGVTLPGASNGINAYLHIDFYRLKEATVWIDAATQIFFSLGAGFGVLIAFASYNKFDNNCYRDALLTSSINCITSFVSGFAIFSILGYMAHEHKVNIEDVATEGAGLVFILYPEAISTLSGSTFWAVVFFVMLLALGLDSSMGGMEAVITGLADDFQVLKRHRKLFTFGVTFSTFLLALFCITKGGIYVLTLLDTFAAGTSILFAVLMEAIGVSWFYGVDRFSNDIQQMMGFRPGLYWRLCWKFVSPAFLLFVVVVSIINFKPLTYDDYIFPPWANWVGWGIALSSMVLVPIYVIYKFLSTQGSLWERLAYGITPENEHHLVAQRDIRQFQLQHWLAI

T1 sequence (Q61327 whole entry): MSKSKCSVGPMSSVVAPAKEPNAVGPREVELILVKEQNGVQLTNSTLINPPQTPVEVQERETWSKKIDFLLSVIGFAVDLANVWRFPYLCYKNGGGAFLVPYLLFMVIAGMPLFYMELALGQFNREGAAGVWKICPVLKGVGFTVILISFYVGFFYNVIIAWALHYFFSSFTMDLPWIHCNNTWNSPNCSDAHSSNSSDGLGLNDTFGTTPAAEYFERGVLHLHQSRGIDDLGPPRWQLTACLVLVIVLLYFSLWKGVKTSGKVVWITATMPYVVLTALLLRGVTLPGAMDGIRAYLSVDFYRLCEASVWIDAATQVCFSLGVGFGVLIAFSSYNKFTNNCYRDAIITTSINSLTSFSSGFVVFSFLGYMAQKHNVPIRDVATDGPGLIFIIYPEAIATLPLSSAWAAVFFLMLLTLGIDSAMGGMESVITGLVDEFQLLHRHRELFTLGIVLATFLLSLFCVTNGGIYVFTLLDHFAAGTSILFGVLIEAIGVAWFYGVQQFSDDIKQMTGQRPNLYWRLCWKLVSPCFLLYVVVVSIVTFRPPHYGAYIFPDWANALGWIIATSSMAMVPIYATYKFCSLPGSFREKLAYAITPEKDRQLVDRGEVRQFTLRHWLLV

Compound: Fc1ccc(C(OCCN2CCN(CCCc3ccccc3)CC2)c2ccc(F)cc2)cc1 [GBR12909]
- Ki ([1]; 2.7 nM [3H]WIN35,428, striatal homogenates, mean (95% CI), N = 3 mice, read-out: Ki for displacement of [3H]WIN35,428 binding to DAT): 0.001 µM

Compound: C[n+]1ccc(-c2ccccc2)cc1 [[^3H]MPP^+, 1-methyl-4-phenylpyridinium]
- Km ([2]; used to determine Ki values, read-out: Km for uptake in OCT3 over-expressing cells): 1000 µM

Compound: CNCCC(Oc1ccccc1OC)c1ccccc1 (stereo not drawn) [[^3H]Nisoxetine]
- Kd [3]: 0.0025 µM

Compound: COC(=O)[C@H]1[C@@H](c2ccc(F)cc2)C[C@@H]2CC[C@H]1N2C [[^3H]WIN35,428]
- Kd ([1]; saturation assays on striatum of 5 C57BL/6J mice, used to calculate Ki, read-out: Kd of hot ligand at DAT): 0.0078 µM

Compound: COC(=O)[C@H]1[C@@H](OC(=O)c2ccccc2)C[C@@H]2CC[C@H]1N2C [cocaine]
- Locomotor sensitization, first vs. 4th session Mean Difference ([4]; OCT3+/+ mice): -9.84
- Locomotor sensitization, first vs. 4th session Mean Difference ([4]; OCT3-/- mice): -31.91
- Block of APP+ uptake into hSERT HEK293 cells [5]: blocked APP^+ uptake
- EC50, half maximally effective amount to inhibit DA clearance (T80) ([6]; OCT3+/+ mice): 35 ± 9 pmol
- Emax, maximal inhibition of DA clearance (percent increase in T80) ([6]; OCT3+/+ mice): 150 ± 13%
- percent change in T20-60 value from baseline ([6]; OCT3+/+ mice): 140 ± 8 (16)**/^† percent
- percent change in peak amplitude of DA signal from baseline ([6]; OCT3+/+ mice): 109 ± 14 (16) percent
- Effect on DA clearance time (T80) ([6]; OCT3+/+ mice): inhibited DA clearance
- EC50, half maximally effective amount to inhibit DA clearance (T80) ([6]; OCT3-/- mice): 23 ± 16 pmol
- Emax, maximal inhibition of DA clearance (percent increase in T80) ([6]; OCT3-/- mice): 154 ± 15%
- percent change in T20-60 value from baseline ([6]; OCT3-/- mice): 148 ± 14 (15) percent
- percent change in peak amplitude of DA signal from baseline ([6]; OCT3-/- mice): 106 ± 16 (15) percent
- Effect on DA clearance time (T80) ([6]; OCT3-/- mice): inhibited DA clearance
- Block of APP+ uptake into hDAT HEK293 cells ([7]; 10 µM cocaine): blocked APP^+ uptake
- Block of fluorescent substrate uptake in hOCT3 HEK293 cells [8]: does not block fluorescent substrate uptake
- Activity at OCT3 [9]: does not have activity at OCT3

Compound: C[C@]12C[C@H](O)[C@H]3[C@@H](CCC4=CC(=O)CC[C@@]43C)[C@@H]1CC[C@@H]2C(=O)CO [corticosterone]
- Block of ASP+ uptake ([10]; 10 µM corticosterone): fully blocked uptake of ASP^+

Compound: CCO [ethanol]
- Locomotor sensitization, first vs. 4th session Mean Difference ([4]; OCT3+/+ mice): −12.01
- Sensitization of locomotor activity ([4]; ethanol alone, OCT3+/+ and OCT3-/- mice): no ethanol-induced sensitization
- Potentiation of CPP for cocaine by ethanol [11]: did not potentiate CPP for cocaine
- Displacement of [3H]WIN35,428 binding to DAT ([1]; ethanol 3.4 nM up to 1 M, striatal homogenates): did not displace
- percent change in T20-60 value from baseline ([6]; OCT3+/+ mice): 123 ± 8 (14) percent
- percent change in peak amplitude of DA signal from baseline ([6]; OCT3+/+ mice): 80 ± 8 (14) percent
- Effect on DA clearance time (T80) ([6]; OCT3+/+ mice): increased T80 DA clearance time
- percent change in T20-60 value from baseline ([6]; OCT3-/- mice): 100 ± 6 (17)^###/$$ percent
- percent change in peak amplitude of DA signal from baseline ([6]; OCT3-/- mice): 70 ± 8 (17) percent
- Effect on DA clearance time (T80) ([6]; OCT3-/- mice): did not inhibit DA clearance
- Inhibition of APP+ uptake into hDAT HEK293 cells ([7]; highest ethanol concentration tested (100 mM)): only modestly inhibited uptake
- Displacement of [3H]nisoxetine binding to NET [12]: did not displace
- Displacement of [3H]citalopram binding to SERT [13]: did not displace
- Inhibition of ASP+ uptake ([10]; 30 mM ethanol, A.U.C. T80-150 s): ~ 50%
- Block of ASP+ uptake ([10]; 100 mM ethanol): fully blocked uptake of ASP^+
- Dialysate ethanol levels in the nucleus accumbens [14]: approximately 6 mM
- Ki ([2]; hOCT3 HEK293 cells, N = 5 replicate assays in triplicate): 4200 ± 200 µM
- Inhibition of APP+ uptake into hNET HEK293 cells [15]: only modestly inhibited uptake
